Experimental data published in patent publication US20140220154A1, “METHOD OF TREATING PATHOLOGIC HETEROTOPIC OSSIFICATION” (The United States of America, as represented by the …, priority 2011, published 2014).
“Also recorded” adds a separate entry of the source.

Tests used:
[1] = system: Prx1-cre+; Gαs^flox/− mice; assay: HO formation in vivo in Prx1-cre+; Gαs^flox/− pups from treated pregnant females (Alizarin Red-Alcian Blue staining); parameters: species or system mouse
Experimental: FIG. 12: ATO inhibits HO formation in Prx1-cre+; Gαs^flox/− mice. Pregnant females were injected with either […] ATO or vehicle at E13.5, E15.5 and E17.5 and embryos were collected at E18.5. An Alizarin Red-Alcian Blue skeletal prep was performed to assay for the presence of HO between the digits.
Embryos were skinned and placed in 100% EtOH overnight to fix. Embryos were then placed in staining solution for 2 days (50 mL staining solution=2.5 mL 0.3% Alcian Blue, 2.5 mL 0.1% Alizarin Red, 2.5 mL 100% glacial acetic acid, 42.5 mL 70% EtOH). Embryos were rinsed with water, then placed in 1% KOH until destained, and finally in 80% glycerol for storage.
Inhibitors of Hh signaling were tested for an ability to inhibit the formation of HO in vivo. Matings were established between Prx1-cre+; Gαs^flox/− male and Gαs^flox/flox female mice. Pregnant females at gestational days E13.5, E15.5 and E17.5 were injected intraperitoneally with 5 mg/kg ATO. Pregnant mice are first weighed and then injected with care so as to avoid injection into uteri. Mice were sacrificed at E18.5, pups were collected, and stained for bone formation by Alizarin Red-Alcian Blue staining. Prx1-cre+; Gαs^flox/− pups from mice injected with vehicle control produced HO as evidenced by enhanced red staining in soft tissues. […]

[2] = system: Hh pathway activation (Ptch1, Gli1, HIP); assay: Limb culture of E14.5 limbs with qRT-PCR for markers of Hh pathway activation; type: cell-based; conditions: Prx1-cre+; Gαs^flox/− mouse limbs isolated at E14.5, cultured in vitro 4 days, 5 μM ATO vs vehicle
Experimental: FIG. 8: ATO inhibits elevated Hh signaling in Prx1-cre+; Gαs^flox/− mouse limbs. Control and Prx1-cre+; Gαs^flox/− mouse limbs were isolated at E14.5 and cultured in vitro for 4 days in the BGJB media containing vehicle or 5 μM ATO. Limbs were then collected, RNA isolated and qRT-PCR was performed for markers of Hh pathway activation (Ptch1, Gli1, HIP). In the absence of ATO, expression of these markers was elevated relative to control (6-fold, 5-fold and 17-fold, respectively).
The formation of HO indicated inappropriate upregulation of a pro-osteogenic pathway (e.g. BMP, Wnt, and/or hedgehog) outside the skeleton. As Gαs is a physiologically important activator of protein kinase A (PKA) and PKA is a potent inhibitor of Hedghehog (Hh) signaling (Jiang, et al., 1995, Cell 80, 563-572), loss of Gαs is likely associated with an upregulation of Hh that was driving HO formation. Accordingly, Hh signaling would be elevated prior to HO formation and overlap in its tissue expression. Quantitative reverse transcriptase polymerase chain reaction (qRT-PCR) was performed on RNA isolated from control and Prx1-cre+; Gαs^flox/− mutant limb tissue at E14.5, prior to HO formation. The following primers were used for qRT-PCR: […]
Relative expression was quantified using the […] method (Livak, et al., 2001, Methods 25, 402-08). […]

[3] = system: bone marrow mesenchymal cells (BMMC); assay: Osteoblastic differentiation of BMMC after removal of Gαs (Von Kossa, Alizarin red staining); type: cell-based, mouse; conditions: osteogenic media 7 days
Experimental: FIG. 13: Removal of Gαs from bone marrow mesenchymal cells (BMMC) promotes osteoblastic differentiation, which is inhibited by Hh antagonist, GANT-58 treatment in a dose-dependent manner. BMMCs were isolated from Gαsflox/flox mice and infected with a Cre-containing adenovirus (ad-Cre) to remove Gαs or GFP-containing adenovirus (Ad-GFP) control. Cells were grown to confluence and placed in osteogenic media for 7 days. […] No effect of GANT-58 observed in Ad-GFP treated cells (panels c and e compared to a).
HO requires an inappropriate increase in bone forming cells (osteoblasts) The role of Gαs in promoting osteoblastic differentiation was tested. Bone marrow mesenchymal cells (BMMC) (also called mesenchymal stem cells) were isolated from Gαs^flox/flox mice. BMMC were isolated by flushing the bone marrow cavity of 6 week old mice and plating cells in Alpha-MEM, 20% FBS, 100 U/mL penicillin, 100 μg/mL streptomycin, 2 mM glutamine. Prior to reaching confluence cells were treated with a Cre- or GFP-containing adenovirus. Upon reaching confluence cells were switched to osteogenic media (DMEM, 10% lot-selected FBS, 100 U/mL penicillin, […] streptomycin, 2 mM glutamine, 10^-4M L-ascorbic acid 2-phosphate and 10 mM α-glycerol phosphate). These cells were infected with a Cre-containing adenovirus to remove Gαs and cultured under conditions that favor osteogenic differentiation. […]

| Molecule | HO in forelimb and hind limb, Alizarin Red-Alcian Blue staining ([1]; pregnant females injected intraperitoneally with 5 mg/kg ATO at E13.5, E15.5 and E17.5, pups collected at E18.5, vs vehicle control) | levels of HO in forelimbs and hind limbs, Alizarin Red-Alcian Blue skeletal prep ([1]; pregnant females injected with 5 μg/kg ATO at E13.5, E15.5 and E17.5, embryos collected at E18.5, relative to vehicle) | expression of markers of Hh pathway activation (Ptch1, Gli1, HIP) by qRT-PCR [2] | tissue mineralization, Von Kossa staining ([3]; Ad-Cre infected BMMC (Gαs removed)) | effect on mineralization in control cells, Von Kossa staining ([3]; Ad-GFP treated BMMC (control)) |
| --- | --- | --- | --- | --- | --- |
| arsenic trioxide [ATO] | significant reduction in HO | reduced levels of HO | dramatic reduction in the Hh pathway activation; also recorded: significantly reduced | – | – |
| c1cc(-c2sc(-c3ccncc3)c(-c3ccncc3)c2-c2ccncc2)ccn1 [GANT-58] | – | – | – | inhibited by GANT-58 in a dose-dependent manner | No effect |
